PubChem BioAssay AID2060331 (Molecular Pharmacology Branch, DTP, NCI, 2025)

Test system: Hs578T multi-cell spheroids, viability
Test: Anticancer human tumor Hs578T cell line growth inhibition [IpAb];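 further: drug exposure lasted 7 days before readout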
Conditions: for IC50: curve of first compound; for viability, T/C: stronger effect = lower value
Summary of the method: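 Spheroids of 60% malignant cells, 25% HUVEC and 15% MSC were exposed to targeted agents combined with ipatasertib or abemaciclib. Doses started at or near clinical Cmax (10 microM when unknown) and fell in half-log steps.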

[1] = second compound 0.1 µM, first compound 0.0316 µM
[2] = second compound 0.1 µM, first compound 0.1 µM
[3] = second compound 0.1 µM, first compound 0.316 µM
[4] = second compound 0.1 µM, first compound 1 µM
[5] = second compound 0.1 µM, first compound 3.16 µM
[6] = second compound 0.1 µM, first compound 10 µM
[7] = second compound 0.316 µM, first compound 0.0316 µM
[8] = second compound 0.316 µM, first compound 0.1 µM
[9] = second compound 0.316 µM, first compound 0.316 µM
[10] = second compound 0.316 µM, first compound 1 µM
[11] = second compound 0.316 µM, first compound 3.16 µM
[12] = second compound 0.316 µM, first compound 10 µM
[13] = second compound 1 µM, first compound 0.0316 µM
[14] = second compound 1 µM, first compound 0.1 µM
[15] = second compound 1 µM, first compound 0.316 µM
[16] = second compound 1 µM, first compound 1 µM
[17] = second compound 1 µM, first compound 3.16 µM
[18] = second compound 1 µM, first compound 10 µM
[19] = second compound 0.01 µM, first compound 0.0316 µM
[20] = second compound 0.01 µM, first compound 0.1 µM
[21] = second compound 0.0316 µM, first compound 0.0316 µM
[22] = second compound 0.0316 µM, first compound 0.1 µM

## Cn1ncc(Cl)c1-c1cc(C(=O)NC(CN)Cc2cccc(F)c2)sc1Cl (stereo not given) + CC(C)NCC(C(=O)N1CCN(c2ncnc3c2C(C)CC3O)CC1)c1ccc(Cl)cc1
Second compound 0.1 µM
  IC50: 1680 nM
Second compound 0.316 µM
  IC50: 2070 nM
Second compound 1 µM
  IC50: 1110 nM
Second compound 3.16 µM
  IC50: 951 nM
Second compound 10 µM
  IC50: 31.6 nM
[1]
  viability, T/C: 90.9%
[2]
  viability, T/C: 83.2%
[3]
  viability, T/C: 70%
[4]
  viability, T/C: 56.5%
[5]
  viability, T/C: 44.5%
[6]
  viability, T/C: 0.16%
[7]
  viability, T/C: 51.9%
[8]
  viability, T/C: 73.5%
[9]
  viability, T/C: 67.1%
[10]
  viability, T/C: 54.5%
[11]
  viability, T/C: 45.9%
[12]
  viability, T/C: 0.16%
[13]
  viability, T/C: 67.3%
[14]
  viability, T/C: 62.1%
[15]
  viability, T/C: 50.1%
[16]
  viability, T/C: 51.6%
[17]
  viability, T/C: 39.4%
[18]
  viability, T/C: 0.15%
Second compound 3.16 µM, first compound 0.0316 µM
  viability, T/C: 53.2%
Second compound 3.16 µM, first compound 0.1 µM
  viability, T/C: 53.7%
Second compound 3.16 µM, first compound 0.316 µM
  viability, T/C: 49%
Second compound 3.16 µM, first compound 1 µM
  viability, T/C: 48.6%
Second compound 3.16 µM, first compound 3.16 µM
  viability, T/C: 41.5%
Second compound 3.16 µM, first compound 10 µM
  viability, T/C: 0.16%
Second compound 10 µM, first compound 0.0316 µM
  viability, T/C: 42.7%
Second compound 10 µM, first compound 0.1 µM
  viability, T/C: 47.3%
Second compound 10 µM, first compound 0.316 µM
  viability, T/C: 43.9%
Second compound 10 µM, first compound 1 µM
  viability, T/C: 52.2%
Second compound 10 µM, first compound 3.16 µM
  viability, T/C: 28.6%
Second compound 10 µM, first compound 10 µM
  viability, T/C: 0.24%

## C=CCn1c(=O)c2cnc(Nc3ccc(N4CCN(C)CC4)cc3)nc2n1-c1cccc(C(C)(C)O)n1 + CCN1CCN(Cc2ccc(Nc3ncc(F)c(-c4cc(F)c5nc(C)n(C(C)C)c5c4)n3)nc2)CC1
Second compound 0.01 µM
  IC50: 366 nM
Second compound 0.0316 µM
  IC50: 376 nM
Second compound 0.1 µM
  IC50: 459 nM
Second compound 0.316 µM
  IC50: 1260 nM
Second compound 1 µM
  IC50: 2140 nM
[19]
  viability, T/C: 92.1%
[20]
  viability, T/C: 86.3%
Second compound 0.01 µM, first compound 0.316 µM
  viability, T/C: 51.9%
Second compound 0.01 µM, first compound 1 µM
  viability, T/C: 27.9%
Second compound 0.01 µM, first compound 3.16 µM
  viability, T/C: 16.8%
Second compound 0.01 µM, first compound 10 µM
  viability, T/C: 17.2%
[21]
  viability, T/C: 86.3%
[22]
  viability, T/C: 75.3%
Second compound 0.0316 µM, first compound 0.316 µM
  viability, T/C: 53%
Second compound 0.0316 µM, first compound 1 µM
  viability, T/C: 31.9%
Second compound 0.0316 µM, first compound 3.16 µM
  viability, T/C: 21.2%
Second compound 0.0316 µM, first compound 10 µM
  viability, T/C: 17.4%
[1]
  viability, T/C: 82.6%
[2]
  viability, T/C: 72.2%
[3]
  viability, T/C: 57.1%
[4]
  viability, T/C: 36.4%
[5]
  viability, T/C: 24.9%
[6]
  viability, T/C: 19.2%
[7]
  viability, T/C: 80.4%
[8]
  viability, T/C: 76.9%
[9]
  viability, T/C: 69%
[10]
  viability, T/C: 55.6%
[11]
  viability, T/C: 32.3%
[12]
  viability, T/C: 21.4%
[13]
  viability, T/C: 94.4%
[14]
  viability, T/C: 92.9%
[15]
  viability, T/C: 79.4%
[16]
  viability, T/C: 65%
[17]
  viability, T/C: 42.5%
[18]
  viability, T/C: 24%

## CC(C)n1nc(-c2ccc3oc(N)nc3c2)c2c(N)ncnc21 + CCN1CCN(Cc2ccc(Nc3ncc(F)c(-c4cc(F)c5nc(C)n(C(C)C)c5c4)n3)nc2)CC1
Second compound 0.01 µM
  IC50: 7.78 nM
Second compound 0.0316 µM
  IC50: 5.53 nM
Second compound 0.1 µM
  IC50: 5.64 nM
Second compound 0.316 µM
  IC50: 5.59 nM
Second compound 1 µM
  IC50: 10.1 nM
Second compound 0.01 µM, first compound 0.000316 µM
  viability, T/C: 94.1%
Second compound 0.01 µM, first compound 0.001 µM
  viability, T/C: 88.5%
Second compound 0.01 µM, first compound 0.00316 µM
  viability, T/C: 69.6%
Second compound 0.01 µM, first compound 0.01 µM
  viability, T/C: 46.2%
[19]
  viability, T/C: 19.9%
[20]
  viability, T/C: 13.2%
Second compound 0.0316 µM, first compound 0.000316 µM
  viability, T/C: 87.5%
Second compound 0.0316 µM, first compound 0.001 µM
  viability, T/C: 72.3%
Second compound 0.0316 µM, first compound 0.00316 µM
  viability, T/C: 63.2%
Second compound 0.0316 µM, first compound 0.01 µM
  viability, T/C: 39.8%
[21]
  viability, T/C: 18.3%
[22]
  viability, T/C: 14.9%
Second compound 0.1 µM, first compound 0.000316 µM
  viability, T/C: 78.8%
Second compound 0.1 µM, first compound 0.001 µM
  viability, T/C: 78.1%
Second compound 0.1 µM, first compound 0.00316 µM
  viability, T/C: 59.1%
Second compound 0.1 µM, first compound 0.01 µM
  viability, T/C: 40.8%
[1]
  viability, T/C: 18.7%
[2]
  viability, T/C: 15.2%
Second compound 0.316 µM, first compound 0.000316 µM
  viability, T/C: 82%
Second compound 0.316 µM, first compound 0.001 µM
  viability, T/C: 76.2%
Second compound 0.316 µM, first compound 0.00316 µM
  viability, T/C: 59%
Second compound 0.316 µM, first compound 0.01 µM
  viability, T/C: 40.6%
[7]
  viability, T/C: 23.1%
[8]
  viability, T/C: 15.8%
Second compound 1 µM, first compound 0.000316 µM
  viability, T/C: 93.5%
Second compound 1 µM, first compound 0.001 µM
  viability, T/C: 90.6%
Second compound 1 µM, first compound 0.00316 µM
  viability, T/C: 69%
Second compound 1 µM, first compound 0.01 µM
  viability, T/C: 48.8%
[13]
  viability, T/C: 34.9%
[14]
  viability, T/C: 19.8%

## Cn1cnc2c(F)c(Nc3ccc(Br)cc3Cl)c(C(=O)NOCCO)cc21 + CCN1CCN(Cc2ccc(Nc3ncc(F)c(-c4cc(F)c5nc(C)n(C(C)C)c5c4)n3)nc2)CC1
Second compound 0.01 µM
  IC50: 2980 nM
Second compound 0.0316 µM
  IC50: 2000 nM
Second compound 0.1 µM
  IC50: 1470 nM
Second compound 0.316 µM
  IC50: 2020 nM
Second compound 1 µM
  IC50: > 3000 nM
Second compound 0.01 µM, first compound 0.00949 µM
  viability, T/C: 98.5%
Second compound 0.01 µM, first compound 0.03 µM
  viability, T/C: 95%
Second compound 0.01 µM, first compound 0.0949 µM
  viability, T/C: 82.1%
Second compound 0.01 µM, first compound 0.3 µM
  viability, T/C: 87.5%
Second compound 0.01 µM, first compound 0.949 µM
  viability, T/C: 69.4%
Second compound 0.01 µM, first compound 3 µM
  viability, T/C: 49.2%
Second compound 0.0316 µM, first compound 0.00949 µM
  viability, T/C: 88.3%
Second compound 0.0316 µM, first compound 0.03 µM
  viability, T/C: 77%
Second compound 0.0316 µM, first compound 0.0949 µM
  viability, T/C: 72.2%
Second compound 0.0316 µM, first compound 0.3 µM
  viability, T/C: 79.4%
Second compound 0.0316 µM, first compound 0.949 µM
  viability, T/C: 67.1%
Second compound 0.0316 µM, first compound 3 µM
  viability, T/C: 40.8%
Second compound 0.1 µM, first compound 0.00949 µM
  viability, T/C: 79.6%
Second compound 0.1 µM, first compound 0.03 µM
  viability, T/C: 70.6%
Second compound 0.1 µM, first compound 0.0949 µM
  viability, T/C: 77.7%
Second compound 0.1 µM, first compound 0.3 µM
  viability, T/C: 65.5%
Second compound 0.1 µM, first compound 0.949 µM
  viability, T/C: 58.3%
Second compound 0.1 µM, first compound 3 µM
  viability, T/C: 38.1%
Second compound 0.316 µM, first compound 0.00949 µM
  viability, T/C: 77.3%
Second compound 0.316 µM, first compound 0.03 µM
  viability, T/C: 74%
Second compound 0.316 µM, first compound 0.0949 µM
  viability, T/C: 68.3%
Second compound 0.316 µM, first compound 0.3 µM
  viability, T/C: 68.3%
Second compound 0.316 µM, first compound 0.949 µM
  viability, T/C: 56.2%
Second compound 0.316 µM, first compound 3 µM
  viability, T/C: 46%
Second compound 1 µM, first compound 0.00949 µM
  viability, T/C: 89.8%
Second compound 1 µM, first compound 0.03 µM
  viability, T/C: 89.7%
Second compound 1 µM, first compound 0.0949 µM
  viability, T/C: 78.9%
Second compound 1 µM, first compound 0.3 µM
  viability, T/C: 75.3%
Second compound 1 µM, first compound 0.949 µM
  viability, T/C: 69.2%
Second compound 1 µM, first compound 3 µM
  viability, T/C: 53%
